Assay results published in patent US12383528B2, “Cromolyn esters and uses thereof” (The General Hospital Corporation, priority 2018, dated 2025).

Columns and labels:
[1] = Measured log D (lipophilicity); assay type: physicochemical
[2] = Brain positron emission tomography (PET) imaging study, dynamic PET; assay type: in vivo; conditions: rhesus monkey PET; for order of brain tracer penetration: three 18F-cromolyn analogs compared
Method: Dynamic PET imaging (GE Discovery MI Scanner) in a rhesus monkey was performed with compound 5 (diethyl ester), compound 6 (di-tert-butyl ester), and ^18F-Cromolyn (diacid).

Row | SMILES | logD [1] | regional brain uptake [2] | time of maximum brain uptake [2] | washout from brain [2] | maximum brain uptake ([2]; at 2 min) | brain uptake during washout ([2]; at 20 min) | brain uptake during washout ([2]; at 60 min) | order of brain tracer penetration [2]
1 | CCOC(=O)c1cc(=O)c2c(OCC([18F])COc3cccc4oc(C(=O)OCC)cc(=O)c34)cccc2o1 [Compound 5] | 2.5 | uptake in all regions of the brain with the highest in putamen, grey matter and cerebellum followed by caudate, thalamus and white matter | 2 min | washout was slow | 2.3 SUV | 2 SUV | 1.5 SUV | diethyl ester>di-tert-butyl ester>diacid
2 | CC(C)(C)OC(=O)c1cc(=O)c2c(OCC([18F])COc3cccc4oc(C(=O)OC(C)(C)C)cc(=O)c34)cccc2o1 [Compound 6] | 3.5 |  |  |  |  |  |  | diethyl ester>di-tert-butyl ester>diacid
3 | O=C(O)c1cc(=O)c2c(OCC([18F])COc3cccc4oc(C(=O)O)cc(=O)c34)cccc2o1 [^18F-Cromolyn (diacid), reference compound] |  |  |  |  |  |  |  | diethyl ester>di-tert-butyl ester>diacid
